Source: patent US8563545B2, “Compound useful for the treatment of degenerative and inflammatory diseases” (Galapagos NV, priority 2009, dated 2013)
Where “and” joins values, the source holds several entries; their conditions need not be identical. Equal entries are not always repeated.

Legend:
[1] = biological target: JAK1 (Homo sapiens (Human), UniProt P23458); assay: JAK1 inhibition assay; type: biochemical
Protocol: (§1) Plates were washed 6 times with 300 μL per well of a 75 mM phosphoric acid solution and the bottom of the plates was sealed. 40 μL/well of Microscint-20 was added, the top of the plates was sealed and readout was performed using the Topcount (Perkin Elmer). Kinase activity was calculated by subtracting counts per minute (cpm) obtained in the presence of a positive control inhibitor (10 μM staurosporine) from cpm obtained in the presence of vehicle. The ability of a test compound to inhibit this activity was determined as:
(§2) Percentage inhibition=((cpm determined for sample with test compound present−cpm determined for sample with positive control inhibitor)divided by(cpm determined in the presence of vehicle−cpm determined for sample with positive control inhibitor))*100.
Dose dilution series were prepared for the compounds enabling the testing of dose-response effects in the JAK1 assay and the calculation of the IC50 for each compound.

[2] = biological target: JAK2 (Homo sapiens (Human), UniProt O60674); assay: JAK2 inhibition assay; type: biochemical
Protocol: as §1, with “After 90 min at 30° C., reactions were stopped by adding of 25 μL/well of 150 mM phosphoric acid. […] Plates” for “Plates”
as §2
Dose dilution series were prepared for the compounds enabling the testing of dose-response effects in the JAK2 assay and the calculation of the IC50 for each compound.

Sequence of JAK2 (O60674 808-1132): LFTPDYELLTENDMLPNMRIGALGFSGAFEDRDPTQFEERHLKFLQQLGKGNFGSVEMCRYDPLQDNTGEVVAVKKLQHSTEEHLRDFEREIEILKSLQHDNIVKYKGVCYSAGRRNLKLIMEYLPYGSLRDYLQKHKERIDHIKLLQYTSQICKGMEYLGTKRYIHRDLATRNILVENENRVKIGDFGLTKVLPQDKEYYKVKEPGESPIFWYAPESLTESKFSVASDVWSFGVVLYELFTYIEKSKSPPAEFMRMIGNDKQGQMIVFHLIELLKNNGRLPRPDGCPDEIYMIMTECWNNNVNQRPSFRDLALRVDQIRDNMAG
Sequence of JAK1 (P23458 850-1154): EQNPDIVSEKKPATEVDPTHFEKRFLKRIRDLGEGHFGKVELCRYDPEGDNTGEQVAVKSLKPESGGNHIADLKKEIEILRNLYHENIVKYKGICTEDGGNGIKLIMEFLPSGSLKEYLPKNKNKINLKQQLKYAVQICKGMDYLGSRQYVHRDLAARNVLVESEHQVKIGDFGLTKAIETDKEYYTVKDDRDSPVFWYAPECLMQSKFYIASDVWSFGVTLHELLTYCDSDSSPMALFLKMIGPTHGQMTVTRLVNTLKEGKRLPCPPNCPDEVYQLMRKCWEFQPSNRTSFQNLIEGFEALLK

Work on `O=C(Nc1nc2cccc(-c3cccc(CN4CCOCC4)c3)n2n1)C1CC1` [Compound 3, N-(5-(3-(morpholinomethyl)phenyl)-[1,2,4]triazolo[1,5-a]pyridin-2-yl)cyclopropanecarboxamide] yielded an IC50 [1] of 291 nM.
For `CC(=O)N1CCN(Cc2ccc(-c3cccc4nc(NC(=O)C5CC5)nn34)cc2)CC1` [Compound 9, N-(5-(4-((4-acetoylpiperazin-1-yl)methyl)phenyl)-[1,2,4]triazolo[1,5-a]pyridin-2-yl)cyclopropanecarboxamide], the IC50 [2] was 849 nM and the IC50 [1] was 334 nM.
Work on `O=C(Nc1nc2cccc(-c3ccc(CN4CCCCC4)cc3)n2n1)C1CC1` [Compound 7, N-(5-(4-(piperidin-1-ylmethyl)phenyl)-[1,2,4]triazolo[1,5-a]pyridin-2-yl)cyclopropanecarboxamide] yielded an IC50 [2] of 6450 nM and an IC50 [1] of 504 nM.
Work on `CN1CCN(Cc2ccc(-c3cccc4nc(NC(=O)C5CC5)nn34)cc2)CC1` [Compound 6, N-(5-(4-((4-methylpiperazin-1-yl)methyl)phenyl)-[1,2,4]triazolo [1,5-a]pyridin-2-yl) cyclopropanecarboxamide] yielded an IC50 [2] of 5070 nM and an IC50 [1] of 3450 nM.
`O=C(Nc1nc2cccc(-c3ccc(N4CCOCC4)nc3)n2n1)C1CC1` [Compound 4, N-(5-(6-morpholinopyridin-3-yl)-[1,2,4]triazolo[1,5-a]pyridin-2-yl)cyclopropanecarboxamide] was tested, and the IC50 [1] was 1030 nM.
`O=C(Nc1nc2cccc(-c3ccc(N4CCOCC4)cc3)n2n1)C1CC1` [Compound 5, N-(5-(4-morpholinophenyl)-[1,2,4]triazolo[1,5-a]pyridin-2-yl)cyclopropanecarboxamide] was tested, and the IC50 [2] was 1760 nM and the IC50 [1] was 1450 nM.
With `NC(=O)C1CCN(Cc2ccc(-c3cccc4nc(NC(=O)C5CC5)nn34)cc2)CC1` [Compound 8] the IC50 [2] was 7730 nM and 1360 nM and the IC50 [1] was 435 nM.
